This note sets out measurements from patent publication US8232099B2, “Method for transcription/degradation dual control of protein by antibiotic” (Japan Science and Technology Agency, priority 2007, dated 2012).

Residues, ends and D or L forms follow the SMILES beside them. *: point of attachment. Cbz = O=C(OCc1ccccc1)*

Assay type in all cases: cell-based, human
For data set [1], the system named is mutant TetR-EGFP. In words: Flow cytometer fluorescence of HEp-2 cells expressing mutant TetR-EGFP. The settings on record: various concentrations. The text has this: (§1) All of or any two mutations in combination from three types of mutations, which substitute aspartic acid at the 95th position with asparagine, leucine at the 101st position with serine and glycine at the 102nd position with aspartic acid, were introduced into the tetracycline repressor (TetR), which is an Escherichia coli protein that binds to the antibiotic tetracycline (Tet). The procedure was as follows:
An oligonucleotide encoding an amino acid sequence containing the amino acid substitution to be introduced was synthesized, and this was used to prepare a DNA fragment containing a mutation by PCR reaction. […]
(§2) An oligo-DNA was synthesized, having a base sequence in which the termination codon has been substituted so as to encode another amino acid instead of the termination codon in the TetR gene, and downstream thereof, a sequence that is recognized and cut by a restriction enzyme; this was used to carry out a PCR reaction to prepare a DNA fragment encoding TetR with no termination codon, and this was substituted with the corresponding site on the DNA encoding the wild-type gene. Then, the DNA was cut by a restriction enzyme and ligated with the upstream side of a DNA fragment encoding EGFP in such a way that the translation open reading frames for protein synthesis match (FIG. 1A). […]
(Flow cytometry measures light scatter and fluorescence of single cells or particles in a stream.)

Data set [2] relates to pOSTet15-eTetREGFP and pOSTet15-hTetREGFP. As to the kind of experiment: EGFP expression induction in HEp-2, dual control of transcription and degradation. The text has this:
A cDNA was integrated into the constitutive gene expression vector “pEB6CAG” or the vector “pOSTet15” enabling transcription-regulated expression through doxycycline, which the present inventors developed by applying the methods in Japanese National-phase PCT Laid-Open Patent Publication No. 2003-515314 (the entirety of which is incorporated herein by reference). The cDNA to be expressed integrates a simple fluorescent protein EGFP, or eTetREGFP or hTetREGFP, which degradation control is enabled by doxycycline. […]
Using a commercially available lipofection reagent, this DNA was introduced into the human cell line HEp-2, the cell line was cultured for four days in the presence of 1.5 mg/ml G418, and only cells with the DNA introduced were selected. These cells were subjected to a flow cytometer and the intensity of fluorescence by EGFP was measured cell by cell to determine the average fluorescence intensity thereof.

Data set [3] concerns pOSTet15-TetRhCre. In words: Cre recombination reporter (Venus to DsRed1) in HEp-2, dual control. Set-up: cells displaying red fluorescence only: dose or concentration left out as unconfirmed. From the text: As vectors to control the expression of the […] Cre protein, three types of vectors were constructed for: control by protein degradation only, control by transcription only and dual control. […] Three types of vectors were constructed, “pEB6CAG-TetRhCre”, which enables control by degradation alone, and created by turning the hCre cDNA into TetRhCre which enables degradation control by doxycycline, and which was then integrated into the constitutive gene expression vector “pEB6CAG” described above; “pOSTet15-hCre”, which enables control by transcription alone and was created by integrating hCre cDNA into “pOSTet15”: “pOSTet15-TetRhCre”, which enables dual control and created by integrating TetRhCre into “pOSTet15”. In addition to these, as a monitoring vector for confirming the DNA recombination effect by the Cre protein, a recombination reporter vector in which the yellow fluorescent protein Venus was flanked by loxP sequences and the red fluorescent protein DsRed1 was placed downstream thereof, “pEB6CAG-Venus-lox-R1-SRZ” (FIG. 10), was also constructed. […] The expression effect of Cre can be detected simply from this change in fluorescence wavelength (FIG. 10).
Using a commercially available lipofection reagent, this DNA was introduced into the human cell line HEp-2, the cell line was cultured for four days in the presence of 1.5 mg/ml G418 and 0.1 mg/ml zeocin, and only cells with the two species of DNA introduced were selected. Fluorescences at two wavelengths, yellow and red, were measured with a flow cytometer.
Next, comparison on the capabilities was performed, between when Cre protein expression regulation is carried out by protein degradation control alone and transcription control alone, and the dual control system of the present invention. […]
Next, analyses were performed on the influence of the concentration of doxycycline exerted on recombination efficiency. Two species, the vector for Cre dual control and the recombination reporter vector described above, were introduced into a cell, and after selection over […] efficiency.

Data set [4] concerns pEB6CAG-TetRhCre. In words: Cre recombination reporter in HEp-2, control by protein degradation alone. The settings on record: 1.0 μg/ml doxycycline.
Description: (§3) As vectors to control the expression of the lambda phage Cre protein, three types of vectors were constructed for: control by protein degradation only, control by transcription only and dual control. […] The expression effect of Cre can be detected simply from this change in fluorescence wavelength (FIG. 10).
Data set [5] relates to pOSTet15-hCre. In words: Cre recombination reporter in HEp-2, control by transcription alone. As to conditions: 1.0 μg/ml doxycycline.
Description: as §3
In data set [6] the target is T1, wild-type TetR-EGFP (Escherichia coli, UniProt P04483).
T1 construct: prepare a DNA fragment encoding TetR with no termination codon; expressed in transfected cells; host or cells: human cell line HEp-2, vector pEB6CAG
In words: Flow cytometer fluorescence of HEp-2 cells expressing wild-type TetR-EGFP. As to conditions: 100 μg/ml MG132, 12 hours.
Description: as §1
Next, cDNAs encoding TetR-EGFP in which wild-type TetR gene and mutation-introduced TetR gene, respectively, are fused with green fluorescent protein (EGFP) were created. The procedure was as follows.
as §2

T1 sequence (P04483 whole entry, the tested form may be a part): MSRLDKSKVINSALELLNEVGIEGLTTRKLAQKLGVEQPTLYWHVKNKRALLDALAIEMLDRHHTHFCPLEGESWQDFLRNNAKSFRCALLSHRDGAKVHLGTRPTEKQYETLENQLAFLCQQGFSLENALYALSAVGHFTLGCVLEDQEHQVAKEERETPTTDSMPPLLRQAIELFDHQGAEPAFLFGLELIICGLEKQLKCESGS

Regarding `C[C@H]1c2cccc(O)c2C(=O)C2=C(O)[C@]3(O)C(=O)C(C(N)=O)=C(O)[C@@H](N(C)C)[C@@H]3[C@@H](O)[C@@H]21` [doxycycline], in data set [1], the “concentration at which enhancement of fluorescence started to be observed” value was not below 0.05 µg/mL. In addition, in data set [1], the “concentration at which the maximum intensity of fluorescence was reached” value stood at 1.5 µg/mL. In addition, the “induction ratio of fluorescence, doxycycline added vs not added” value in data set [2] is on record as not below 400 times. In addition, the “cells displaying red fluorescence only” value in data set [3] worked out at 60%. In data set [3] (1.0 μg/ml doxycycline, treated for three days), the “decrease in cell count due to cytotoxicity” value is “almost no decrease in cell count”. The “cells changed to red fluorescence” value in data set [3] (1.0 μg/ml doxycycline, treatment of only one day) is given as not below 70%. Also, the “cells in which red fluorescence was detected (red only plus both yellow and red)” value in data set [3] (1 mg/ml doxycycline) is recorded as not below 70%. The “concentration needed to ensure that recombination occurs” value in data set [3] (four concentration steps from 0.001 μg/ml to 1.0 μg/ml) turned out to be 1.0 µg/mL. In addition, the results for the “cytotoxicity when doxycycline was added” value in data set [4] and in data set [5] were “killing cells” and “cytotoxicity was observed”, respectively.
`CC(C)C[C@@H](C=O)NC(=O)[C@H](CC(C)C)NC(=O)[C@H](CC(C)C)NC(=O)OCc1ccccc1` [MG132] (Cbz-Leu-Leu-Leu-aldehyde): the “change in intensity of fluorescence” value in data set [6] was “no major change”.
